What was measured:
Test in all cases: radiometric filter-binding kinase assay
[1] = molecular target: MARK4 (human) (UniProt Q96L34)
[2] = molecular target: GSK3B (human) (UniProt P49841)
[3] = molecular target: MAP3K1 (human) (UniProt Q13233)
[4] = molecular target: NUAK1 (human) (UniProt O60285)
[5] = molecular target: INSR (human) (UniProt P06213)
[6] = molecular target: MAPK9 (human) (UniProt P45984)
[7] = molecular target: MAPKAPK2 (human) (UniProt P49137)
[8] = molecular target: DYRK2 (human) (UniProt Q92630)
[9] = molecular target: PAK6 (human) (UniProt Q9NQU5)
Sequence of PAK6 (human) (Q9NQU5 whole entry, looked up): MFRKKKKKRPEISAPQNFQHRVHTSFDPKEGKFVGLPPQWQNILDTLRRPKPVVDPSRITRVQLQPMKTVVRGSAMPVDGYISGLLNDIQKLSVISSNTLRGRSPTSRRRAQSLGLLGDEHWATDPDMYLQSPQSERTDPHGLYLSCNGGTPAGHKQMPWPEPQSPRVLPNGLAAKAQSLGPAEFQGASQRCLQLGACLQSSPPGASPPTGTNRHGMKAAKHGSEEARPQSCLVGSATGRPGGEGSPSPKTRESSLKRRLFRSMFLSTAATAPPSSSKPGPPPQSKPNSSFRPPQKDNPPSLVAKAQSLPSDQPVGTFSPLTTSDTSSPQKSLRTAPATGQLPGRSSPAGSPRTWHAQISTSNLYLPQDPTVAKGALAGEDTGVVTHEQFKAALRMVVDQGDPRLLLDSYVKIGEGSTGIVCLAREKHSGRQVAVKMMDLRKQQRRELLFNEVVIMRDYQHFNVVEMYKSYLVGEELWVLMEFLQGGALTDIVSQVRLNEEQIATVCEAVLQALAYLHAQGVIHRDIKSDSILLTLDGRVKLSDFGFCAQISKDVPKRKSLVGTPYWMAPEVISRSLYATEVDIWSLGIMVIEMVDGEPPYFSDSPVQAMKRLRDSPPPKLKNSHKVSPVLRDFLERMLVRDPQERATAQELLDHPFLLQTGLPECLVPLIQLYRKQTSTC

[10] = molecular target: MAP2K6 (human) (UniProt P52564)
[11] = molecular target: IRAK4 (human) (UniProt Q9NWZ3)
Sequence of IRAK4 (human) (Q9NWZ3 whole entry, looked up): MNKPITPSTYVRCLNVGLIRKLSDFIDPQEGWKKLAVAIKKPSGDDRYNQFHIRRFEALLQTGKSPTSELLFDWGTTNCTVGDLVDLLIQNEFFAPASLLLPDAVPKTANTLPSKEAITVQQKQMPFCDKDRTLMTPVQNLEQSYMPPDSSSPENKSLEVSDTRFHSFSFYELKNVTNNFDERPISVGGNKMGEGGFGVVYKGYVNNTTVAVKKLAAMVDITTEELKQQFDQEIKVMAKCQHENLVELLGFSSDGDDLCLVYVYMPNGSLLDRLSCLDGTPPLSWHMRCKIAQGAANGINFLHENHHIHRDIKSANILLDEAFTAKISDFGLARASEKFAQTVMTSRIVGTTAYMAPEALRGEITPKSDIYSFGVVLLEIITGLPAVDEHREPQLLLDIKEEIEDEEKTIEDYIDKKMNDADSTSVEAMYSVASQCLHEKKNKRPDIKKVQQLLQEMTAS

[12] = molecular target: MAP3K9 (human) (UniProt P80192)
[13] = system: AKT1 (human), P31749 [S473D]
[14] = molecular target: PIM1 (human) (UniProt P11309)
[15] = molecular target: EEF2K (human) (UniProt O00418)
[16] = molecular target: STK11 CAB39 STRADA (human) (UniProt Q9Y376+Q7RTN6+Q15831)
[17] = molecular target: MAP2K2 (human) (UniProt P36507)
[18] = molecular target: HIPK3 (human) (UniProt Q9H422)
[19] = molecular target: PRKCA (human) (UniProt P17252)
[20] = molecular target: EPHA2 (human) (UniProt P29317)
[21] = molecular target: MAP3K5 (human) (UniProt Q99683)
[22] = molecular target: MARK1 (human) (UniProt Q9P0L2)
[23] = molecular target: AURKA (human) (UniProt O14965)
[24] = molecular target: MAP3K11 (human) (UniProt Q16584)
[25] = molecular target: BRSK1 (human) (UniProt Q8TDC3)
[26] = molecular target: MELK (human) (UniProt Q14680)
[27] = molecular target: MAPK12 (human) (UniProt P53778)
Sequence of MAPK12 (human) (P53778 whole entry, looked up): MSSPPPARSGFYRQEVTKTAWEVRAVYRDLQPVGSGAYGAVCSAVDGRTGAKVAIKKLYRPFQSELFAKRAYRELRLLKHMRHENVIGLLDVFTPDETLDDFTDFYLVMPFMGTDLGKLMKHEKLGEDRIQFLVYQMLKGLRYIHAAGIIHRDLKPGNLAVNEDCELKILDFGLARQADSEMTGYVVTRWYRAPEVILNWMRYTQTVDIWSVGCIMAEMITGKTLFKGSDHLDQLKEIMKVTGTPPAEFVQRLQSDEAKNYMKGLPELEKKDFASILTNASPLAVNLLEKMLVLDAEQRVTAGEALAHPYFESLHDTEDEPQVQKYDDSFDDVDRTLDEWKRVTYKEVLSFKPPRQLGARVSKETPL

[28] = molecular target: MST4 (human) (UniProt Q9P289)
Sequence of MST4 (human) (Q9P289 whole entry, looked up): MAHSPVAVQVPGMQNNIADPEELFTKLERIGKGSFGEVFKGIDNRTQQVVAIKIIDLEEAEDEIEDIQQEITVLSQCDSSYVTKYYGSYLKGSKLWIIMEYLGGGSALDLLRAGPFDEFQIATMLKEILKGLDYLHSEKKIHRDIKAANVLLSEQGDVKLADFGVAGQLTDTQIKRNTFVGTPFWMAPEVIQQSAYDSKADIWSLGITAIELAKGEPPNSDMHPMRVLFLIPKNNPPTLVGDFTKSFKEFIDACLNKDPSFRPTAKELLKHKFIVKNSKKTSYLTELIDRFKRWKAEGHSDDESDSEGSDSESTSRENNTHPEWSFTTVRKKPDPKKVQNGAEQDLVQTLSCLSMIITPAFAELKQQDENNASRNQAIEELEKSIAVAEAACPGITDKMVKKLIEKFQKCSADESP

[29] = molecular target: PAK4 (human) (UniProt O96013)
[30] = molecular target: EPHB3 (human) (UniProt P54753)
[31] = molecular target: PRKCZ (human) (UniProt Q05513)
Sequence of PRKCZ (human) (Q05513 whole entry, looked up): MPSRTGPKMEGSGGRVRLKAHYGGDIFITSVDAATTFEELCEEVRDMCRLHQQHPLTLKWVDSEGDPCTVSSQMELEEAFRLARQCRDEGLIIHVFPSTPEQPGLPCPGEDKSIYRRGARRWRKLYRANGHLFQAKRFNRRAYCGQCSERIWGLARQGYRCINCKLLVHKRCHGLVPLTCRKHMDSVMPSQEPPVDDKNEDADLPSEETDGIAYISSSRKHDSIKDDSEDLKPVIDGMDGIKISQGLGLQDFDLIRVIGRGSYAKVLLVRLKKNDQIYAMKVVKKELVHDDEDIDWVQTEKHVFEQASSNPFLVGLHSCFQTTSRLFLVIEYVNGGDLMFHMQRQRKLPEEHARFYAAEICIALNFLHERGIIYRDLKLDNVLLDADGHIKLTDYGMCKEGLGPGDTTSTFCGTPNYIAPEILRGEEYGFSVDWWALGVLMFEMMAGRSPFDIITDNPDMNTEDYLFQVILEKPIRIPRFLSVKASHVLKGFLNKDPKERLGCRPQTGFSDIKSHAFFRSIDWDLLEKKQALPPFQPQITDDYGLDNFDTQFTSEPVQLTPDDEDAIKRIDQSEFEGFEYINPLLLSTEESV

[32] = molecular target: NTRK1 (human) (UniProt P04629)
[33] = molecular target: MAP3K7 TAB1 (human) (UniProt Q15750+O43318)
[34] = molecular target: PKN2 (human) (UniProt Q16513)
Sequence of PKN2 (human) (Q16513 whole entry, looked up): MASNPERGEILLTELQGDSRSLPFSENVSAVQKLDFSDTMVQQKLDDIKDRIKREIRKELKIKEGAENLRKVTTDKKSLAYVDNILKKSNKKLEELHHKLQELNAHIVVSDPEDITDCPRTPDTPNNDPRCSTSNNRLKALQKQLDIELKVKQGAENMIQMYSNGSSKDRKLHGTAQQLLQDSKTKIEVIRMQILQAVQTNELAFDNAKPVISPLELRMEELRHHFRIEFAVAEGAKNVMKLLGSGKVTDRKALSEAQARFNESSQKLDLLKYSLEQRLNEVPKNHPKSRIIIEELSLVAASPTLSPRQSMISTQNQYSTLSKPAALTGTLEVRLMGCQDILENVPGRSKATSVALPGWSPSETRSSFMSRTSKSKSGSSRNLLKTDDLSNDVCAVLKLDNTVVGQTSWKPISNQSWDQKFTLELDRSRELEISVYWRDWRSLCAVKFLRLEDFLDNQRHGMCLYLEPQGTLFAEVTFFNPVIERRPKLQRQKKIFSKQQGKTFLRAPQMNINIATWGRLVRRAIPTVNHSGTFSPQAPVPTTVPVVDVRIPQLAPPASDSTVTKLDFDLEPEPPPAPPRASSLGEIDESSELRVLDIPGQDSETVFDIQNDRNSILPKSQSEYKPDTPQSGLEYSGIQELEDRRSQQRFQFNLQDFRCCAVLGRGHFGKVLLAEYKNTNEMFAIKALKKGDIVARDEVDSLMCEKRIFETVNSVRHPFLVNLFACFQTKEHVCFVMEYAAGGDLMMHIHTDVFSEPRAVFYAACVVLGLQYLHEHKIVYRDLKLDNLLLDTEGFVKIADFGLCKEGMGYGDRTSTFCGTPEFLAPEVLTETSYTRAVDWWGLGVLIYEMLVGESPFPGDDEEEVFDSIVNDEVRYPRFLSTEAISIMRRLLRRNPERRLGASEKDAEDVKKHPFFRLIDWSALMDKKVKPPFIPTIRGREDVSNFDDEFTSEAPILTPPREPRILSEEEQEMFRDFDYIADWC

[35] = molecular target: ERBB4 (human) (UniProt Q15303)
[36] = molecular target: MARK2 (human) (UniProt Q7KZI7); conditions: compound 100.0 µM

Sequence of MAPKAPK2 (human) (P49137 whole entry, looked up): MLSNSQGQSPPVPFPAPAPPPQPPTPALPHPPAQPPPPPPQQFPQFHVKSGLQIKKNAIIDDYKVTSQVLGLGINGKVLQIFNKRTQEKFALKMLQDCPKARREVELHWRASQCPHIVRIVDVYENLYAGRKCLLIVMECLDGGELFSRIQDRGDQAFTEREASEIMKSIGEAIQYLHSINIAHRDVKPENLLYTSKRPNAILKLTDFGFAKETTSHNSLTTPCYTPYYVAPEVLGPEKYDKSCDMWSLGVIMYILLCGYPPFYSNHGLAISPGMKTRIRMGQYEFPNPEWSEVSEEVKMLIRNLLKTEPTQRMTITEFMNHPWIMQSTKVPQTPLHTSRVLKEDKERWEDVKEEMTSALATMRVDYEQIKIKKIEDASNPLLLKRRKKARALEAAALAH
Sequence of MAPK9 (human) (P45984 whole entry, looked up): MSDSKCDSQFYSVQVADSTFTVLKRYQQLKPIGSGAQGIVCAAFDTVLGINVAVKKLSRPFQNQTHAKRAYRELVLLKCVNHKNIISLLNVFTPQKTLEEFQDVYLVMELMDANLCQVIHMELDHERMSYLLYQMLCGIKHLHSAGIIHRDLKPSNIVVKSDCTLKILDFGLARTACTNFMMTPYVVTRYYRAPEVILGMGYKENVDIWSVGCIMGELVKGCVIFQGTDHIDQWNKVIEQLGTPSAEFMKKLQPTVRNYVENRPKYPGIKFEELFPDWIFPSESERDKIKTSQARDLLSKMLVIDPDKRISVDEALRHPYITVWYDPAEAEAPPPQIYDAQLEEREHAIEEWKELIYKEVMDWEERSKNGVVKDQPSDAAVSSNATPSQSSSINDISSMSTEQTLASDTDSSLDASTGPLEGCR

## O=C(Nc1nc2cc(C(F)(F)F)cc(NC3CC3)n2n1)c1cccnc1
[1]; compound 0.01 µM
  residual activity: 127%
[1]; compound 0.1 µM
  residual activity: 111%
[1]; compound 1.0 µM
  residual activity: 119%
[2]; compound 0.01 µM
  residual activity: 87%
[2]; compound 0.1 µM
  residual activity: 92%
[2]; compound 1.0 µM
  residual activity: 79%
[3]; compound 0.01 µM
  residual activity: 97%
[3]; compound 0.1 µM
  residual activity: 108%
[3]; compound 1.0 µM
  residual activity: 91%
[4]; compound 0.01 µM
  residual activity: 100%
[4]; compound 0.1 µM
  residual activity: 116%
[4]; compound 1.0 µM
  residual activity: 98%
[5]; compound 0.01 µM
  residual activity: 107%
[5]; compound 1.0 µM
  residual activity: 100%
[6]; compound 0.01 µM
  residual activity: 89%
[6]; compound 0.1 µM
  residual activity: 84%
[6]; compound 1.0 µM
  residual activity: 90%
[7]; compound 0.01 µM
  residual activity: 99%
[7]; compound 0.1 µM
  residual activity: 102%
[7]; compound 1.0 µM
  residual activity: 99%
[8]; compound 0.01 µM
  residual activity: 104%
[8]; compound 0.1 µM
  residual activity: 92%
[8]; compound 1.0 µM
  residual activity: 90%
[9]; compound 0.01 µM
  residual activity: 100%
[9]; compound 0.1 µM
  residual activity: 88%
[9]; compound 1.0 µM
  residual activity: 93%
[10]; compound 0.01 µM
  residual activity: 100%
[10]; compound 0.1 µM
  residual activity: 110%
[10]; compound 1.0 µM
  residual activity: 85%
[11]; compound 0.01 µM
  residual activity: 90%
[11]; compound 0.1 µM
  residual activity: 90%
[11]; compound 1.0 µM
  residual activity: 83%
[12]; compound 0.01 µM
  residual activity: 90%
[12]; compound 0.1 µM
  residual activity: 80%
[12]; compound 1.0 µM
  residual activity: 75%
[13]; compound 0.01 µM
  residual activity: 97%
[13]; compound 0.1 µM
  residual activity: 95%
[13]; compound 1.0 µM
  residual activity: 104%
[14]; compound 0.01 µM
  residual activity: 104%
[14]; compound 0.1 µM
  residual activity: 96%
[14]; compound 1.0 µM
  residual activity: 98%
[15]; compound 0.01 µM
  residual activity: 99%
[15]; compound 0.1 µM
  residual activity: 118%
[15]; compound 1.0 µM
  residual activity: 84%
[16]; compound 0.01 µM
  residual activity: 107%
[16]; compound 0.1 µM
  residual activity: 132%
[16]; compound 1.0 µM
  residual activity: 105%
[17]; compound 0.01 µM
  residual activity: 90%
[17]; compound 0.1 µM
  residual activity: 90%
[17]; compound 1.0 µM
  residual activity: 69%
[18]; compound 0.01 µM
  residual activity: 101%
[18]; compound 0.1 µM
  residual activity: 102%
[18]; compound 1.0 µM
  residual activity: 96%
[19]; compound 0.01 µM
  residual activity: 87%
[19]; compound 0.1 µM
  residual activity: 89%
[19]; compound 1.0 µM
  residual activity: 94%
[20]; compound 0.01 µM
  residual activity: 95%
[20]; compound 0.1 µM
  residual activity: 93%
[20]; compound 1.0 µM
  residual activity: 100%
[21]; compound 0.01 µM
  residual activity: 98%
[21]; compound 0.1 µM
  residual activity: 54%
[21]; compound 1.0 µM
  residual activity: 11%
[22]; compound 0.01 µM
  residual activity: 93%
[22]; compound 0.1 µM
  residual activity: 90%
[22]; compound 1.0 µM
  residual activity: 86%
[23]; compound 0.01 µM
  residual activity: 108%
[23]; compound 0.1 µM
  residual activity: 128%
[23]; compound 1.0 µM
  residual activity: 96%
[24]; compound 0.01 µM
  residual activity: 88%
[24]; compound 0.1 µM
  residual activity: 104%
[24]; compound 1.0 µM
  residual activity: 87%
[25]; compound 0.01 µM
  residual activity: 102%
[25]; compound 0.1 µM
  residual activity: 90%
[25]; compound 1.0 µM
  residual activity: 95%
[26]; compound 0.01 µM
  residual activity: 97%
[26]; compound 0.1 µM
  residual activity: 107%
[26]; compound 1.0 µM
  residual activity: 92%
[27]; compound 0.01 µM
  residual activity: 71%
[27]; compound 0.1 µM
  residual activity: 102%
[27]; compound 1.0 µM
  residual activity: 80%
[28]; compound 0.01 µM
  residual activity: 106%
[28]; compound 0.1 µM
  residual activity: 99%
[28]; compound 1.0 µM
  residual activity: 106%
[29]; compound 0.01 µM
  residual activity: 111%
[29]; compound 0.1 µM
  residual activity: 98%
[29]; compound 1.0 µM
  residual activity: 102%
[30]; compound 0.01 µM
  residual activity: 99%
[30]; compound 0.1 µM
  residual activity: 95%
[30]; compound 1.0 µM
  residual activity: 99%
[31]; compound 0.01 µM
  residual activity: 96%
[31]; compound 1.0 µM
  residual activity: 84%
[32]; compound 0.01 µM
  residual activity: 80%
[32]; compound 0.1 µM
  residual activity: 83%
[32]; compound 1.0 µM
  residual activity: 81%
[33]; compound 0.01 µM
  residual activity: 92%
[33]; compound 1.0 µM
  residual activity: 84%
[34]; compound 0.01 µM
  residual activity: 77%
[34]; compound 0.1 µM
  residual activity: 104%
[34]; compound 1.0 µM
  residual activity: 75%
[35]; compound 0.01 µM
  residual activity: 106%
[35]; compound 0.1 µM
  residual activity: 88%
[35]; compound 1.0 µM
  residual activity: 88%

## Cc1cc(N=Nc2cc(S(=O)(=O)O)c(C)cc2C)c(N)cc1O
[1]; compound 100.0 µM
  residual activity: 81%
[2]; compound 100.0 µM
  residual activity: 31%
[3]; compound 100.0 µM
  residual activity: 88%
[4]; compound 100.0 µM
  residual activity: 44%
[5]; compound 100.0 µM
  residual activity: 141%
[6]; compound 100.0 µM
  residual activity: 112%
[7]; compound 100.0 µM
  residual activity: 107%
[8]; compound 100.0 µM
  residual activity: 78%
[9]; compound 100.0 µM
  residual activity: 96%
[10]; compound 100.0 µM
  residual activity: 113%
[12]; compound 100.0 µM
  residual activity: 58%
[13]; compound 100.0 µM
  residual activity: 108%
[14]; compound 100.0 µM
  residual activity: 62%
[15]; compound 100.0 µM
  residual activity: 92%
[16]; compound 100.0 µM
  residual activity: 126%
[17]; compound 100.0 µM
  residual activity: 109%
[18]; compound 100.0 µM
  residual activity: 74%
[19]; compound 100.0 µM
  residual activity: 81%
[20]; compound 100.0 µM
  residual activity: 89%
[21]; compound 100.0 µM
  residual activity: 151%
[22]; compound 100.0 µM
  residual activity: 99%
[23]; compound 100.0 µM
  residual activity: 32%
[24]; compound 100.0 µM
  residual activity: 83%
[36]
  residual activity: 98%
[25]; compound 100.0 µM
  residual activity: 76%
[26]; compound 100.0 µM
  residual activity: 87%
[27]; compound 100.0 µM
  residual activity: 108%
[28]; compound 100.0 µM
  residual activity: 67%
[29]; compound 100.0 µM
  residual activity: 70%
[30]; compound 100.0 µM
  residual activity: 48%
[31]; compound 100.0 µM
  residual activity: 97%
[32]; compound 100.0 µM
  residual activity: 65%
[33]; compound 100.0 µM
  residual activity: 31%
[34]; compound 100.0 µM
  residual activity: 126%
[35]; compound 100.0 µM
  residual activity: 99%

Reference: the kinase profiling compilation of Christmann-Franck et al. (2016)
